From patent publication US9138494B2, “Radiolabeled PDE10A ligands” (AbbVie Inc., priority 2011, dated 2015)
pIC50: −log10 of the molar value.

Columns and labels:
PDE10A = PDE10A (Homo sapiens, UniProt Q9Y233); test: PDE enzymatic inhibition assay (HTRF cAMP kit); type: biochemical; settings: recombinant PDE10, 20 nM substrate, 60 minutes at 29° C.
Protocol: Recombinant PDE proteins were used in in vitro enzymatic reaction for measurement of PDE activity. […] The enzymatic activity of PDEs was determined by cAMP measurement kit from CisBio (IBA) using HTRF technology. The PDE enzymatic reaction was carried out in assay buffer (20 mM Tris-HCl pH7.5, 10 mM MgCl2, 0.1% bovine serum albumin) containing enzyme and substrate. The PDE enzymes concentration ranged from 10 pM-250 pM, depending on each enzyme's specific activity. […] The inhibitory effect of compound was determined by incubating various concentration of inhibitor in the enzymatic assay. […] Next, the compound at varying concentration was mixed with PDE enzyme. The reaction was initiated by addition of cyclic nucleotide substrate, and incubated for 60 minutes at 29° C. The reaction was stopped by addition of lysis buffer from assay kit. The cAMP-d2 and anti-cAMP cryptate in the lysis buffer detected the level of cAMP left from the PDE hydrolysis reaction. […] Thus, IC50 value of inhibitor can be obtained by plotting inhibitor concentration against PDE activity at that concentration.

Rat hepatocyte half-life = type: in vitro ADME; settings: hepatocytes; rat (R); read-out: Hepatocyte T1/2
[1] = Monkey microsome half-life; type: in vitro ADME; settings: monkey microsomes; read-out: Monkey Microsome T1/2
[2] = Rat PK (0.05 mg/kg, iv), free brain concentration and free B/P; type: in vivo
[3] = log D determined by shake flask method; type: physicochemical; settings: read-out: SF log D
P-gp = P-gp (Homo sapiens (Human), UniProt P08183); test: MDCK-MDR1 assay, Efflux Ratio (P-gp); type: in vitro ADME; settings: dog; MDCK-MDR1 cells
[4] = Human hepatocyte half-life; type: in vitro ADME; settings: for half-life: hepatocytes, human (H), read-out: Hepatocyte T1/2
rats [5] = settings: cited from earlier work
rats [6] = settings: cited from earlier work; remark: listed apart in the source
rats [7] = settings: cited from earlier work; remark: listed apart in the source

PDE10A, sequence (Q9Y233 whole entry, looked up): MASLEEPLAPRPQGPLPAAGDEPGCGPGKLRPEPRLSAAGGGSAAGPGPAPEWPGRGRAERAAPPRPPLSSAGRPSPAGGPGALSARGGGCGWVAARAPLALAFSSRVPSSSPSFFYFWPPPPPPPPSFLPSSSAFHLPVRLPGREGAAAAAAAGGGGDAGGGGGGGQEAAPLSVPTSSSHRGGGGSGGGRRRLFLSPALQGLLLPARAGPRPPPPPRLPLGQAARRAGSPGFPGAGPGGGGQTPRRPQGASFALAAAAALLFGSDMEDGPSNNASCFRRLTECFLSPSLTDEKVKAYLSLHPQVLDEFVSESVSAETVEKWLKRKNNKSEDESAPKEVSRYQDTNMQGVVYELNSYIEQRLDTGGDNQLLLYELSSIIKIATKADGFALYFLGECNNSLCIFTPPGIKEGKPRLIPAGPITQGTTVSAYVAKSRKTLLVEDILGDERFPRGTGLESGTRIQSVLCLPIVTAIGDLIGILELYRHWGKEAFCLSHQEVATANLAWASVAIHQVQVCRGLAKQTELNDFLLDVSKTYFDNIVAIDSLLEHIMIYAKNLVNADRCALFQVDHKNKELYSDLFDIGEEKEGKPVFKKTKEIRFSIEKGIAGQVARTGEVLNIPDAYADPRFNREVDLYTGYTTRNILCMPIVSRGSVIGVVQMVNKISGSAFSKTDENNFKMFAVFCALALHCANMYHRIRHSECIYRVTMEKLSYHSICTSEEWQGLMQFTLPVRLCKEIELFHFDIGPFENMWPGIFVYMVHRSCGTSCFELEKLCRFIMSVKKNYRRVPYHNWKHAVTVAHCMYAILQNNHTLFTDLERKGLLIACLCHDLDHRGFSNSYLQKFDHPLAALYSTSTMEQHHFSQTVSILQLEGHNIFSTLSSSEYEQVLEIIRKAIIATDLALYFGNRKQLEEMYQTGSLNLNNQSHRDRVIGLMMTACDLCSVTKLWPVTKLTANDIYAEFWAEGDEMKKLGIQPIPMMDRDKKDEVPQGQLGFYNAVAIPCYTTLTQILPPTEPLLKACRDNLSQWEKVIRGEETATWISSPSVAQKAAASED
P-gp, sequence (P08183 whole entry): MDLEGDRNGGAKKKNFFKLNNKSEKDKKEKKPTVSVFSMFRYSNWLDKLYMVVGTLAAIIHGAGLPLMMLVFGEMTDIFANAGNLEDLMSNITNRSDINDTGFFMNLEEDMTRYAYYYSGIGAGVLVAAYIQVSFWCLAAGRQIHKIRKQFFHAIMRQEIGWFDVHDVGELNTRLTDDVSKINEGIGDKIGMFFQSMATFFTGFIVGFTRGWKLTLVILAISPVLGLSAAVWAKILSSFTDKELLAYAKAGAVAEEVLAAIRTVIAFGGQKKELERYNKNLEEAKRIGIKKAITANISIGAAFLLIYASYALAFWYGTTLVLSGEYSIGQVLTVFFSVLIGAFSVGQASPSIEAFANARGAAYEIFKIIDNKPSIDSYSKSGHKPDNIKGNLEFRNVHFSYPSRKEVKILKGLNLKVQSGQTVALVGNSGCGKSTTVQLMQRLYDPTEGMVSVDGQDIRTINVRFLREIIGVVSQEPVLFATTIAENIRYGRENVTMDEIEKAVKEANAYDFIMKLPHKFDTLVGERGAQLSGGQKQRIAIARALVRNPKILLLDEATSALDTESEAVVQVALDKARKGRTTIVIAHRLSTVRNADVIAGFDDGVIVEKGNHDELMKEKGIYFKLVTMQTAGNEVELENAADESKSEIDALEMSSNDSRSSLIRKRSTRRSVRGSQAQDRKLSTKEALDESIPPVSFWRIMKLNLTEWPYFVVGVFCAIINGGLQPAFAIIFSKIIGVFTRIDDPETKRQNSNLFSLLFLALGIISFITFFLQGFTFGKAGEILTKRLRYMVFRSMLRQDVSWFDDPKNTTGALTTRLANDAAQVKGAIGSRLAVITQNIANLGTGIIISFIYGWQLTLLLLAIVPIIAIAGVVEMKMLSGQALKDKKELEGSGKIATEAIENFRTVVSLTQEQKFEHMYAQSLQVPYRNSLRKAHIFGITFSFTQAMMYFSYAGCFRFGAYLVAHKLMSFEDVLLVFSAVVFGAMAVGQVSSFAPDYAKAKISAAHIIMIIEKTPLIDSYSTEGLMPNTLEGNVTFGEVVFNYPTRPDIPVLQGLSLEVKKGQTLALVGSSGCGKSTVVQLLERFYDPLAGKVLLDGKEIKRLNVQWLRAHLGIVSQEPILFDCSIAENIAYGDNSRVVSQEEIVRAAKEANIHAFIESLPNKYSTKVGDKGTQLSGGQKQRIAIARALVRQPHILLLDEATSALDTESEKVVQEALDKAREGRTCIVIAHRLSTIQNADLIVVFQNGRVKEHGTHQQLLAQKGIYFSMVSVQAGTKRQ

With `Cn1cc(-c2ccncc2)c(-c2ccc(OCc3ccc4ncccc4n3)cc2)n1` [Example 1, 2-((4-(1-methyl-4-(pyridin-4-yl)-1H-pyrazol-3-yl)phenoxy)methyl)-1,5-naphthyridine] as the compound, how does the pIC50 (PDE10A) read?
The pIC50 was 8.98.

For `FCCn1cc(-c2ccncc2)c(-c2ccc(OCc3ccc4ncccc4n3)cc2)n1` [Example 2, 2-((4-(1-(2-fluoroethyl)-4-(pyridin-4-yl)-1H-pyrazol-3-yl)phenoxy)methyl)-1,5-naphthyridine], which half-life (Rat hepatocyte half-life) is on record?
Its half-life is 12 min.

And the half-life [1]?
The half-life was 24 min.

And the “Free B/P (ratio of free brain concentration divided by free plasma concentration)” value ([2]; 3 min after dose)?
Its value is 0.20.

What about the “Free [brain]” value ([2]; 3 min after dose) of the same compound?
The value was 0.692 ng/g.

And the “Free B/P (ratio of free brain concentration divided by free plasma concentration)” value ([2]; 5 min after dose)?
The value was 0.13.

What about the “Free [brain]” value ([2]; 5 min after dose) of the same compound?
Its value is 0.184 ng/g.

And the logD [3]?
Its logD is 3.71.

What about the efflux ratio (P-gp) of the same compound?
Its efflux ratio is 1.95.

And the pIC50 (PDE10A)?
Its pIC50 is 9.70.

What about the half-life [4] of the same compound?
Its half-life is 79 min.

What about the “human hepatocyte half-life compared with MP-10, JNJ-41510417 and Janssen B-3” value ([4]; human Hepatocyte T1/2) of the same compound?
Its value is “significantly longer human hepatocyte half-lives”.

With `FCCn1cc(-c2ccncc2)c(-c2ccc(OCc3nc4ccccc4o3)cc2)n1` [Example 3, 2-((4-(1-(2-fluoroethyl)-4-(pyridin-4-yl)-1H-pyrazol-3-yl)phenoxy)methyl)benzo[d]oxazole] as the compound, how does the pIC50 (PDE10A) read?
The pIC50 was 8.33.

With `Cn1cc(-c2ccncc2)c(-c2ccc(OCc3nc4ccccc4c(=O)n3C)cc2)n1` [Example 4, 3-methyl-2-((4-(1-methyl-4-(pyridin-4-yl)-1H-pyrazol-3-yl)phenoxy)methyl)quinazolin-4(3H)-one] as the compound, how does the pIC50 (PDE10A) read?
Its pIC50 is 8.70.

With `FCCn1cc(-c2ccncc2)c(-c2ccc(OCc3ncc4ccccc4n3)cc2)n1` [Example 9, 2-((4-(1-(2-fluoroethyl)-4-(pyridin-4-yl)-1H-pyrazol-3-yl)phenoxy)methyl)quinazoline] as the compound, how does the pIC50 (PDE10A) read?
The pIC50 was 9.74.

With `FCCn1cc(-c2ccncc2)c(-c2ccc(OCc3ccc4ccccc4n3)cc2)n1` [JNJ-41510417, reference compound] as the compound, how does the pIC50 (PDE10A) read?
The pIC50 was 9.20.

With `Cc1cnc(COc2ccc(-c3nn(CCF)cc3-c3ccncc3)cc2)c(C)c1` [Janssen B-3, reference compound] as the compound, how does the pIC50 (PDE10A) read?
Its pIC50 is 9.01.

With `Cn1cc(-c2ccncc2)c(-c2ccc(OCc3ccc4ccccc4n3)cc2)n1` [MP-10, reference compound] as the compound, how does the half-life (Rat hepatocyte half-life) read?
The half-life was 13 min.

And the half-life [1]?
The half-life was 7 min.

And the “Free [brain]” value ([2]; 3 min after dose)?
Its value is 0.054 ng/g.

And the “Free [brain]” value ([2]; 5 min after dose)?
The value was 0.098 ng/g.

And the logD [3]?
The logD was 4.28.

What about the half-life [4] of the same compound?
The half-life was 54.9 min.

Which results are given for `COc1ccc(Cc2nccc3cc(OC)c(OC)cc23)cc1OC` [Papaverine, papaverine]?
reduction of amphetamine-induced hyperactivity (rats [5]): insignificant; PCP-induced hyperactivity (rats [6]): reduced hyperactivity; catalepsy on its own (rats [7]; alone): did not cause catalepsy on its own; effect on haloperidol-induced catalepsy (rats [7]; with haloperidol): potentiated the cataleptic effect
